Results taken from article PMC12332667, “Role of Structural Modifications in Peptidomimetic Compounds as Potential Antimicrobial Agents against Staphylococcus aureus and Streptococcus pyogenes: Balancing Bioavailability, Safety, and Antimicrobial Activity” (ACS Omega, 2025).
Values after ≈ are worked out from the molar mass of the structure shown.

Assays:
E. faecalis c.i. = experiment: MIC/MBC broth microdilution, E. faecalis; assay type: cell-based, Enterococcus faecalis
Experimental: (§1) S. aureus (ATCC 29213),S. pyogenes (ATCC 19615),Streptococcus agalactiae (ATCC 27956),Escherichia coli (ATCC 25922),Proteus vulgaris (ATCC 6896),K. pneumoniae (ATCC 700603) andP. aeruginosa (ATCC 10145) reference strains, as well asStaphylococcus cohnii, Enterococcus faecalis, Staphylococcus schleiferi, Staphylococcus intermedius and Streptococcus mutans clinical isolates, were used to test the antibacterial activity of the peptidomimetics. Bacteria were aerobically cultured for 18 h at 37 °C in plates with sterilized brain heart infusion (BHI) broth (Sigma-Aldrich, USA) media mixed with bacteriological agar (Sigma-Aldrich, USA) using the streak plate method. After 18 h, BHI broth was inoculated to 0.5 on the McFarland scale and diluted to approximately 10^5 CFU/mL. To achieve a final stock concentration of 1024 μg/mL, the peptidomimetics were dissolved in sterile water, and 5–10% of absolute ethanol or dimethyl sulfoxide (DMSO) was added. The antibacterial activities were determined by using the standard broth microdilution method of the National Committee for Clinical Laboratory Standards. The process involved adding serially diluted peptidomimetics to consecutive wells of a 96-well microtiter plate (Brand, Germany) holding media with microorganisms. The inoculated plates treated with peptides were then placed in an incubator at 37 °C for 18 h. The MIC value was determined as the lowest concentration of peptidomimetic at which there was no obvious growth (equal or more than 90% of the untreated sample). […] The lowest concentration yielding growth in no more than 3 colonies, corresponding to at least a 99.9% kill rate, was taken as MBC. Each biological replicate included control wells with the addition of water, DMSO, and ethanol as respective solvent controls. All experiments were conducted with consistent adherence to growth and sterility controls and were performed at least in technical triplicate with three biological repeats.

fibroblasts (46BR.1N) = experiment: LDH cytotoxicity test, fibroblasts; assay type: cell-based; conditions: 48 h, 50, 100 and 150 μg/mL, vs 1% Triton X-100
Experimental: (§2) In our study, we used two distinct cell types: immortalized human HaCaT keratinocytes (DKFZ, Heidelberg, Germany) and a human dermal fibroblast cell line (46BR.1N). […] Cultures were maintained in a humidified atmosphere with 5% CO2 at 37 °C in 25 cm^2 culture flasks with the medium replenished every 2 days. The condition of the cells was monitored using optical microscopy.
(§3) Cell death in immortalized human keratinocytes (HaCaT) and fibroblasts (46BR.1N) was measured by quantifying the lactate dehydrogenase (LDH) activity using a commercial kit (Roche, Switzerland). Cells were seeded in 96-well plates at a density of 5000 cells per well in DMEM high glucose medium supplemented with 10% FBS. After 24 h of incubation, the medium was replaced with serum-free medium containing various concentrations of peptidomimetics (50, 100, and 150 μg/mL). After 48 h, supernatants were collected for LDH analysis. Plate readings were taken spectrophotometrically using a 450 nm wavelength. Cell death measurements were normalized to an untreated control (0%), with 1% Triton X-100 detergent used as a positive control to induce maximum LDH release, indicating maximal cytotoxicity. Statistical significance was determined with a Mann–Whitney U test with a statistical significance p ≤ 0.05. Analysis was performed with Statistica software (Krakow, Poland) and graphs were prepared in GraphPad Prism (Boston, USA).

[1] = test system: K. pneumoniae ATCC 700603; experiment: MIC/MBC broth microdilution, K. pneumoniae; assay type: cell-based
Experimental: as §1

P. aeruginosa ATCC 10145 = experiment: MIC/MBC broth microdilution, P. aeruginosa; assay type: cell-based
Experimental: as §1

S. cohnii c.i. = experiment: MIC/MBC broth microdilution, S. cohnii; assay type: cell-based, Staphylococcus cohnii
Experimental: as §1

[2] = test system: immortalized human keratinocytes (HaCaT); experiment: LDH cytotoxicity test, keratinocytes; assay type: cell-based; conditions: 48 h, 50, 100 and 150 μg/mL, vs 1% Triton X-100
Experimental: as §2, §3

E. coli ATCC 25922 = experiment: MIC/MBC broth microdilution, E. coli; assay type: cell-based, Escherichia coli
Experimental: as §1

S. intemrdius c.i. = experiment: MIC/MBC broth microdilution, S. intermedius; assay type: cell-based, Staphylococcus intermedius
Experimental: as §1

S. schleiferi c.i. = experiment: MIC/MBC broth microdilution, S. schleiferi; assay type: cell-based, Staphylococcus schleiferi
Experimental: as §1

P. vulgaris ATCC 6896 = experiment: MIC/MBC broth microdilution, P. vulgaris; assay type: cell-based, Proteus vulgaris
Experimental: as §1

S. aureus ATCC 43300 = experiment: MIC/MBC broth microdilution, S. aureus; assay type: cell-based, Staphylococcus aureus; conditions: S. aureus
S. pyogenes ATCC 19615 = experiment: MIC/MBC broth microdilution, S. pyogenes; assay type: cell-based, Streptococcus pyogenes; conditions: S. pyogenes
Experimental: as §1

S. agalactiae ATCC 27956 = experiment: MIC/MBC broth microdilution, S. agalactiae; assay type: cell-based, Streptococcus agalactiae; conditions: S. agalactiae
Experimental: as §1

S. mutans c.i. = experiment: MIC/MBC broth microdilution, S. mutans; assay type: cell-based, Streptococcus mutans
Experimental: as §1

[3] = test system: human dermal fibroblast cell line (46BR.1N); experiment: XTT cell proliferation assay, fibroblasts; assay type: cell-based; conditions: XTT
Experimental: (§4) In our study, we used two distinct cell types: immortalized human HaCaT keratinocytes (DKFZ, Heidelberg, Germany) and a human dermal fibroblast cell line (46BR.1N). […] Cultures were maintained in a humidified atmosphere with 5% CO2 at 37 °C in 25 cm^2 culture flasks with the medium replenished every 2 days. The condition of the cells was monitored using optical microscopy. […] After 24 h of incubation, the medium was replaced with serum-free HG-DMEM containing appropriate concentrations of peptidomimetics. All solutions used in the experiments were prepared with double-distilled water or with the addition of ethanol under sterile conditions to ensure compatibility with the conditions of the bacteriological assay. For 72 h of incubation, half of the medium was replaced with fresh medium after 48 h, and cells were stimulated with peptides for a second time. The XTT cell proliferation assay was then performed according to the manufacturer’s instructions (Roche, Switzerland). Cells were treated with the peptides for either 48 or 72 h, followed by the addition of XTT reagent, and the plates were then incubated at 37 °C in a 5% CO2 environment for 4 h. Plate readings were taken using a standard plate reader at a wavelength of 490 nm (OD = 490 nm). […] Statistical significance was determined with a Mann–Whitney U test with statistical significance p ≤ 0.05. Analysis was performed with Statistica software, and graphs were prepared in GraphPad Prism.

[4] = test system: immortalized human HaCaT keratinocytes; experiment: XTT cell proliferation assay, keratinocytes; assay type: cell-based; conditions: XTT
Experimental: as §4

## CC(C)C[C@H](NC(=O)[C@H](CCCCNC(=N)N)NC(=O)OCc1ccccc1)C(=O)N[C@H](CNC(=O)/C=C/c1ccccc1)C(C)C [Compound A-134]
E. faecalis c.i.; water additive DMSO
  MBC: 512 µg/mL (≈ 788 µM)
  MIC: 256 µg/mL (≈ 394 µM)
E. faecalis c.i.; water additive EtOH
  MBC: 512 µg/mL (≈ 788 µM)
  MIC: 512 µg/mL (≈ 788 µM)
Fibroblasts (46BR.1N)
  cytotoxicity (LDH): ≤ 50%
[1]; water additive DMSO
  MIC: > 512 µg/mL
[1]; water additive EtOH
  MIC: > 512 µg/mL
P. aeruginosa ATCC 10145; water additive DMSO
  MIC: > 512 µg/mL
P. aeruginosa ATCC 10145; water additive EtOH
  MIC: > 512 µg/mL
S. cohnii c.i.; water additive DMSO
  MBC: 32 µg/mL (≈ 49.2 µM)
  MIC: 32 µg/mL (≈ 49.2 µM)
S. cohnii c.i.; water additive EtOH
  MBC: 32 µg/mL (≈ 49.2 µM)
  MIC: 32 µg/mL (≈ 49.2 µM)
[2]
  cytotoxicity (LDH): ≤ 50%
E. coli ATCC 25922; water additive DMSO
  MIC: > 512 µg/mL
E. coli ATCC 25922; water additive EtOH
  MIC: > 512 µg/mL
S. intemrdius c.i.; water additive DMSO
  MBC: 32 µg/mL (≈ 49.2 µM)
  MIC: 32 µg/mL (≈ 49.2 µM)
S. intemrdius c.i.; water additive EtOH
  MBC: 16 µg/mL (≈ 24.6 µM)
  MIC: 16 µg/mL (≈ 24.6 µM)
S. schleiferi c.i.; water additive DMSO
  MIC: > 512 µg/mL
S. schleiferi c.i.; water additive EtOH
  MIC: > 512 µg/mL
P. vulgaris ATCC 6896; water additive DMSO
  MIC: > 512 µg/mL
P. vulgaris ATCC 6896; water additive EtOH
  MIC: > 512 µg/mL
S. aureus ATCC 43300; H2O
  MIC: 32 µg/mL (≈ 49.2 µM)
S. aureus ATCC 43300; water additive EtOH
  MIC: 32 µg/mL (≈ 49.2 µM)
S. pyogenes ATCC 19615; H2O
  MIC: 32 µg/mL (≈ 49.2 µM)
S. pyogenes ATCC 19615; water additive DMSO
  MBC: 16 µg/mL (≈ 24.6 µM)
  MIC: 32 µg/mL (≈ 49.2 µM)
S. pyogenes ATCC 19615; water additive EtOH
  MBC: 32 µg/mL (≈ 49.2 µM)
  MIC: 16 µg/mL (≈ 24.6 µM)
S. agalactiae ATCC 27956; water additive DMSO
  MIC: 32 µg/mL (≈ 49.2 µM)
S. agalactiae ATCC 27956; water additive EtOH
  MIC: 32 µg/mL (≈ 49.2 µM)
S. mutans c.i.; water additive DMSO
  MBC: > 512 µg/mL
  MIC: 512 µg/mL (≈ 788 µM)
S. mutans c.i.; water additive EtOH
  MIC: > 512 µg/mL
[3]; 50 μg/mL
  proliferation relative to control at 50 μg/mL: approximately 75%
[3]; 48 and 72 h, 0.01–150 μg/mL
  effect on proliferation, in words: pro-proliferating effect at lower concentrations followed by an antiproliferative effect at higher concentrations
[4]; 50 μg/mL
  proliferation relative to control at 50 μg/mL: approximately 75%
[4]; 48 and 72 h, 0.01–150 μg/mL
  effect on proliferation, in words: pro-proliferating effect at lower concentrations followed by an antiproliferative effect at higher concentrations
